From PubChem BioAssay (NCI)
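The compound was tested at five concentrations on cells cultured in 96-well plates, with a 48-hour exposure period. The concentration for full growth arrest is given as TGI.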

Experiments:
Experiment in all cases: growth of human tumour cells (NCI), 48 h
[1] = system: K-562 leukemia
[2] = system: PC-3 prostate
[3] = system: OVCAR-3 ovarian
[4] = system: BT-549 breast
[5] = system: OVCAR-4 ovarian
[6] = system: MDA-N
[7] = system: RXF 393 renal
[8] = system: SF-295 CNS
[9] = system: MDA-MB-435
[10] = system: DU-145 prostate
[11] = system: SF-539 CNS
[12] = system: 786-0 renal
[13] = system: TK-10 renal
[14] = system: MOLT-4 leukemia
[15] = system: OVCAR-5 ovarian
[16] = system: MALME-3M melanoma
[17] = system: HL-60(TB) leukemia
[18] = system: NCI-H460 lung
[19] = system: A498 renal

Structure (SMILES)	TGI [1]	TGI [2]	TGI [3]	TGI [4]	TGI [5]	TGI [6]	TGI [7]	TGI [8]	TGI [9]	TGI [10]	TGI [11]	TGI [12]	TGI [13]	TGI [14]	TGI [15]	TGI [16]	TGI [17]	TGI [18]	TGI [19]
c1ccc(Cc2nc(Cc3n[nH]c(Cc4ccccc4)n3)n[nH]2)cc1	> 100 µM	> 100 µM	> 100 µM	> 100 µM	> 100 µM	> 100 µM	> 100 µM	> 100 µM	> 100 µM	> 100 µM	> 100 µM	> 100 µM	> 100 µM	> 100 µM	> 100 µM				
COc1cccc(NC(=O)/C(CC(=O)CC(c2ccccc2)c2c(O)c3ccccc3oc2=O)=N\NC(C)(C)C)c1OC (stereo not given)	> 100 µM		> 100 µM		> 100 µM			> 100 µM			> 100 µM	> 100 µM	> 100 µM	> 100 µM	> 100 µM	> 100 µM	> 100 µM	> 100 µM	> 100 µM
c1ccc2c(c1)nc1n2CCCn2ccnc2-1	> 100 µM	> 100 µM	> 100 µM	> 100 µM	> 100 µM	> 100 µM	> 100 µM	> 100 µM		> 100 µM	> 100 µM	> 100 µM		> 100 µM	> 100 µM	> 100 µM	0.597 µM	> 100 µM	> 100 µM
O=C1c2ccccc2NC(=O)C2C1C(c1ccccc1)CC2(O)c1ccccc1 (stereo not given)		74.3 µM	> 100 µM		> 100 µM		> 100 µM	> 100 µM	> 100 µM	> 100 µM	> 100 µM	> 100 µM	99.7 µM	71.5 µM	> 100 µM	> 100 µM	> 100 µM	> 100 µM	> 100 µM
CC(C)CC1C(=O)NCCC(NC(=O)C(N)Cc2ccc(O)cc2)C(=O)NC(Cc2ccccc2)C(=O)NC(Cc2ccccc2)NC1=O (stereo not given)	> 100 µM	> 100 µM	> 100 µM		> 100 µM	> 100 µM	> 100 µM	> 100 µM	> 100 µM	> 100 µM	> 100 µM	> 100 µM	> 100 µM	> 100 µM	> 100 µM	> 100 µM	> 100 µM	> 100 µM	> 100 µM
Cc1cc2nc(CCC(=O)O)c(=O)[nH]c2cc1C	> 100 µM		> 100 µM		> 100 µM		> 100 µM	> 100 µM			> 100 µM	> 100 µM	> 100 µM	> 100 µM	> 100 µM	> 100 µM	> 100 µM	> 100 µM	> 100 µM
Cc1ccc(NN=NCCCCN)cc1				> 100 µM	> 100 µM	> 100 µM	> 100 µM	> 100 µM	> 100 µM	> 100 µM	> 100 µM	> 100 µM	> 100 µM	> 100 µM	> 100 µM	> 100 µM	> 100 µM		> 100 µM
CCCCCCCCCc1cc(-c2ccc(C=O)s2)sc1-c1ccc(C=O)s1	> 38 µM	> 100 µM	38.2 µM	> 93.6 µM	> 80.4 µM		35.4 µM	> 100 µM	> 100 µM	> 100 µM	> 84.3 µM	> 85.2 µM	34.7 µM	10.5 µM	> 91.6 µM	> 100 µM	51.1 µM	> 83.2 µM	3.12 µM
CC(OC(C)(C)C)[C@H](NC(=O)OC(C)(C)C)C(=O)O (stereo not given in full)	> 100 µM	> 100 µM	> 100 µM	> 100 µM	> 100 µM			> 100 µM	> 100 µM	> 100 µM	> 100 µM	> 100 µM	> 100 µM	> 100 µM	> 100 µM	> 100 µM	> 100 µM	> 100 µM	> 100 µM
c1ccc(N=C(Nc2ccccc2)N2CCCCC2)cc1	> 100 µM	> 100 µM	> 100 µM	> 100 µM	> 100 µM	> 100 µM		> 100 µM	> 100 µM			> 100 µM	> 100 µM	> 100 µM	> 100 µM	> 100 µM	> 100 µM	> 100 µM	
Cc1nc(Nc2ccccc2Cl)sc1C(=O)CC(=O)C(=O)Nc1c(Cl)cccc1Cl	> 100 µM	> 100 µM	57.8 µM	86.2 µM	> 100 µM	> 100 µM	92.9 µM	> 100 µM	50 µM	> 100 µM	83 µM	66 µM	> 100 µM	67.9 µM	> 100 µM		33.6 µM	> 100 µM	
NNC(=O)c1ccccc1NC(=O)/C(=C/c1ccccc1O)NC(=O)c1ccccc1	> 100 µM			> 100 µM	> 100 µM	> 100 µM	> 100 µM	> 100 µM	> 100 µM	> 100 µM	92.4 µM	> 100 µM	> 100 µM	> 100 µM	> 100 µM	> 100 µM	> 100 µM	> 100 µM	> 100 µM
Nc1nc(N)c(C2=CCNCC2)c(=O)[nH]1	> 100 µM	> 100 µM	> 100 µM	> 100 µM	> 100 µM		> 100 µM	> 100 µM	> 100 µM	> 100 µM	> 100 µM	> 100 µM		> 100 µM	> 100 µM	> 100 µM	> 100 µM	> 100 µM	> 100 µM
O=S1CCS(=O)CCS(=O)CC1 (stereo not given)	> 100 µM	> 100 µM	> 100 µM	> 100 µM	> 100 µM	> 100 µM		> 100 µM	> 100 µM	> 100 µM	> 100 µM	> 100 µM	> 100 µM	> 100 µM	> 100 µM		> 100 µM	> 100 µM	
